Results from patent publication US20230203043A1, “NOVEL IMIDAZOPYRAZINE DERIVATIVES” (Hoffmann-La Roche Inc., priority 2020, published 2023).
Structures can show the parent of a compound that is named as a salt. Where two headings read alike, the source gives them in different places.

Test system: Acinetobacter baumannii ATCC17961
Test: Antimicrobial susceptibility testing: 90% growth inhibitory concentration (IC90) determination in Iso-Sensitest broth, OD600 growth
Format: cell-based
Description: Antimicrobial Susceptibility Testing:
90% Growth Inhibitory Concentration (IC90) Determination
The in vitro antimicrobial activity of the compounds was determined according to the following procedure:
The assay used a 10-points Iso-Sensitest broth medium to measure quantitatively the in vitro activity of the compounds against Acinetobacter baumannii ATCC17961 or ATCC17968.
Stock compounds in DMSO were serially twofold diluted (e.g. range from 50 to 0.097 μM final concentration) in 384 wells microtiter plates and inoculated with 49 μl the bacterial suspension in Iso-Sensitest medium to have a final cell concentration of ˜5×10^(5) CFU/ml in a final volume/well of 50 ul/well. Microtiter plates were incubated at 35±2° C.
Bacterial cell growth was determined with the measurement of optical density at λ=600 nm each 20 minutes over a time course of 16 h. Growth inhibition was calculated during the logarithmic growth of the bacterial cells with determination of the concentration inhibiting 50% (IC50) and 90% (IC90) of the growth.
Table 7 provides the 90% growth inhibitory concentrations (IC90) in micromoles per liter of the compounds of present invention obtained against the strain Acinetobacter baumannii ATCC17961 and/or ATCC17968.

[1] = Acinetobacter baumannii, ATCC17961, 16 h, read-out: A. baumannii ATCC 17961 IC90 (uM), strain ATCC 17961, OD600 growth over 16 h
[2] = Acinetobacter baumannii, ATCC17961, 16 h, strain ATCC 17961, OD600 growth over 16 h, read-out: A. baumannii ATCC 17961 IC90
[3] = strain ATCC 17961, OD600 growth over 16 h, read-out: A. baumannii ATCC 17961 IC90

Structure (SMILES)	IC90 [1] [µM]	IC90 [2] [µM]	further results
N#CCn1cc(-c2cnc3c(Nc4ccc(C(=O)N5CCN(C(=O)[C@H]6C[C@H](N)C6)CC5)c(Cl)c4)nccn23)c(C(F)(F)F)n1 [Example 12, 2-[4-[8-[4-[4-(3-aminocyclobutanecarbonyl)piperazine-1-carbonyl]-3-chloroanilino]imidazo[1,2-a]pyrazin-3-yl]-3-(trifluoromethyl)pyrazol-1-yl]acetonitrile formate]	0.176		
CCc1cc(Nc2nccn3c(-c4c[nH]nc4C(F)(F)F)cnc23)ccc1C(=O)NCCCNC(=O)[C@@H](N)CNC(=N)N [Example 13, N-[3-[[(2S)-2-amino-3-carbamimidamidopropanoyl]amino]propyl]-2-ethyl-4-[[3-[3-(trifluoromethyl)-1H-pyrazol-4-yl]imidazo[1,2-a]pyrazin-8-yl]amino]benzamide formate]		0.166	
CNCC1(O)CCN(C(=O)c2ccc(Nc3nccn4c(-c5cn(CC#N)nc5C(F)(F)F)cnc34)cc2Cl)CC1 [Example 14, 2-[4-[8-[3-chloro-4-[4-hydroxy-4-(methylaminomethyl)piperidine-1-carbonyl]anilino]imidazo[1,2-a]pyrazin-3-yl]-3-(trifluoromethyl)pyrazol-1-yl]acetonitrile formate]	0.141		
CCc1cc(Nc2nccn3c(-c4cn(Cc5cc[nH]n5)nc4C(F)(F)F)cnc23)ccc1C(=O)NC [Example 15, 2-ethyl-N-methyl-4-[[3-[1-(1H-pyrazol-3-ylmethyl)-3-(trifluoromethyl)pyrazol-4-yl]imidazo[1,2-a]pyrazin-8-yl]amino]benzamide]		0.251	
C#CCn1cc(-c2cnc3c(Nc4ccc(C(=O)NCCOCCN)c(C)c4)nccn23)c(C(F)(F)F)n1 [Example 16, N-[2-(2-aminoethoxy)ethyl]-2-methyl-4-[[3-[1-prop-2-ynyl-3-(trifluoromethyl)pyrazol-4-yl]imidazo[1,2-a]pyrazin-8-yl]amino]benzamide]		0.069	
CCc1cc(Nc2nccn3c(-c4cn(CC#N)nc4C(F)F)cnc23)ccc1C(=O)NCCOCCN [Example 18, N-[2-(2-aminoethoxy)ethyl]-4-[[3-[1-(cyanomethyl)-3-(difluoromethyl)pyrazol-4-yl]imidazo[1,2-a]pyrazin-8-yl]amino]-2-ethylbenzamide]		0.26	
CCc1cc(Nc2nccn3c(-c4c(C(F)(F)F)n[nH]c4C)cnc23)ccc1C(=O)NCCOCCN [Example 24, N-[2-(2-aminoethoxy)ethyl]-2-ethyl-4-[[3-[5-methyl-3-(trifluoromethyl)-1H-pyrazol-4-yl]imidazo[1,2-a]pyrazin-8-yl]amino] benzamide formate]			IC90 [3]: 0.523 µM
CCCn1cc(-c2cnc3c(Nc4ccc(C(=O)NCCOCCN)c(CC)c4)nccn23)c(C(F)(F)F)n1 [Example 25, N-[2-(2-aminoethoxy)ethyl]-2-ethyl-4-[[3-[1-propyl-3-(trifluoromethyl)pyrazol-4-yl]imidazo[1,2-a]pyrazin-8-yl]amino]benzamide hydrochloride]		0.141	
CCc1cc(Nc2nccn3c(-c4cn(C5CCCC5)nc4C(F)(F)F)cnc23)ccc1C(=O)NCCOCCN [Example 26, N-[2-(2-aminoethoxy)ethyl]-4-[[3-[1-cyclopentyl-3-(trifluoromethyl)pyrazol-4-yl]imidazo[1,2-a]pyrazin-8-yl]amino]-2-ethylbenzamide hydrochloride]		0.282	
CCc1cc(Nc2nccn3c(-c4cn(C(C)C)nc4C(F)(F)F)cnc23)ccc1C(=O)NCCOCCN [Example 27, N-[2-(2-aminoethoxy)ethyl]-2-ethyl-4-[[3-[1-propan-2-yl-3-(trifluoromethyl)pyrazol-4-yl]imidazo[1,2-a]pyrazin-8-yl]amino]benzamide hydrochloride]		0.306	
CCc1cc(Nc2nccn3c(-c4cn(CCC(C)C)nc4C(F)(F)F)cnc23)ccc1C(=O)NCCOCCN [Example 28, N-[2-(2-aminoethoxy)ethyl]-2-ethyl-4-[[3-[1-(3-methylbutyl)-3-(trifluoromethyl)pyrazol-4-yl]imidazo[1,2-a]pyrazin-8-yl]amino]benzamide formate]	0.369		
CCc1cc(Nc2nccn3c(-c4cn(CC#N)nc4C(F)(F)F)cnc23)ccc1C(=O)NCCOCCN [Example 29, N-[2-(2-aminoethoxy)ethyl]-4-[[3-[1-(cyanomethyl)-3-(trifluoromethyl)pyrazol-4-yl]imidazo[1,2-a]pyrazin-8-yl]amino]-2-ethylbenzamide formate]	0.107		
CCc1cc(Nc2nccn3c(-c4cn(CC5CC5)nc4C(F)(F)F)cnc23)ccc1C(=O)NCCOCCN [Example 30, N-[2-(2-aminoethoxy)ethyl]-4-[[3-[1-(cyclopropylmethyl)-3-(trifluoromethyl)pyrazol-4-yl]imidazo[1,2-a]pyrazin-8-yl]amino]-2-ethylbenzmamide formate]			IC90 [3]: 0.159 µM
CCc1cc(Nc2nccn3c(-c4cn(CC)nc4C(F)(F)F)cnc23)ccc1C(=O)NCCOCCN [Example 31, N-[2-(2-aminoethoxy)ethyl]-2-ethyl-4-[[3-[1-ethyl-3-(trifluoromethyl)pyrazol-4-yl]imidazo[1,2-a]pyrazin-8-yl]amino]benzamide formate]	0.175		
CCc1cc(Nc2nccn3c(-c4cn(CCC(F)(F)F)nc4C(F)(F)F)cnc23)ccc1C(=O)NCCOCCN [Example 32, N-[2-(2-aminoethoxy)ethyl]-2-ethyl-4-[[3-[3-(trifluoromethyl)-1-(3,3,3-(trifluoropropyl)pyrazol-4-yl]imidazo[1,2-a]pyrazin-8-yl]amino]benzamide formate]			IC90 [3]: 0.19 µM
CCc1cc(Nc2nccn3c(-c4cn(CCC#N)nc4C(F)(F)F)cnc23)ccc1C(=O)NCCOCCN [Example 33, N-[2-(2-aminoethoxy)ethyl]-4-[[3-[1-(2-cyanoethyl)-3-(trifluoromethyl)pyrazol-4-yl]imidazo[1,2-a]pyrazin-8-yl]amino]-2-ethylbenzamide formate]	0.269		
CCc1cc(Nc2nccn3c(-c4cn(CCOC)nc4C(F)(F)F)cnc23)ccc1C(=O)NCCOCCN [Example 34, N-[2-(2-aminoethoxy)ethyl]-2-ethyl-4-[[3-[1-(2-methoxyethyl)-3-(trifluoromethyl)pyrazol-4-yl]imidazo[1,2-a]pyrazin-8-yl]amino]benzamide formate]	0.367		
CCc1cc(Nc2nccn3c(-c4cn(CC(F)F)nc4C(F)(F)F)cnc23)ccc1C(=O)NCCNC(=O)[C@@H]1CCCN1 [Example 35, (2S)-N-[2-[[4-[[3-[1-(2,2-difluoroethyl)-3-(trifluoromethyl)pyrazol-4-yl]imidazo[1,2-a]pyrazin-8-yl]amino]-2-ethylbenzoyl)amino]ethyl]pyrrolidine-2-carboxamide]		0.185	
CCc1cc(Nc2nccn3c(-c4cn(C(F)F)nc4C(F)(F)F)cnc23)ccc1C(=O)NCCNC(=O)[C@@H]1CCCN1 [Example 36, (2S)-N-[2-[[4-[[3-[1-(difluoromethyl)-3-(trifluoromethyl)pyrazol-4-yl]imidazo[1,2-a]pyrazin-8-yl]amino]-2-ethylbenzoyl)amino]ethyl] pyrrolidine-2-carboxamide]		0.348	
C#CCNC(=O)c1c(C)cc(Nc2nccn3c(-c4cn(CC(F)F)nc4C(F)(F)F)cnc23)cc1F [Example 37, 4-[[3-[1-(2,2-difluoroethyl)-3-(trifluoromethyl)pyrazol-4-yl]imidazo[1,2-a]pyrazin-8-yl]amino]-2-fluoro-6-methyl-N-prop-2-ynylbenzamide]		0.239	
